Data from patent US11071721B2, “Bicyclic amide compounds and methods of use thereof” (Genentech, Inc., priority 2016, dated 2021).

molecular target: human RIP1 kinase domain (2-375) (Homo sapiens (Human), UniProt Q13546); assay: RIP1 kinase inhibition assay (Transcreener ADP biochemical enzyme assay); details: Ki app (Morrison tight-binding fit); 50 nM enzyme, 50 uM ATP, 2 hours incubation, fluorescence polarization
Experimental: RIP1 Kinase Inhibition Assays (Biochemical Assay):
The compounds of the present invention were tested for their capacity to inhibit RIP K activity as described below.
Enzyme assay: The ability of the receptor interacting protein kinase (RIPK1) to catalyze the hydrolysis of adenosine-5′-triphosphate (ATP) is monitored using the Transcreener ADP (adenosine-5′-diphosphate) assay (BellBrook Labs). Purified human RIP1 kinase domain (2-375) (50 nM) derived from a baculovirus-infected insect cell expression system is incubated with test compounds for 2 hours in 50 mM Hepes buffer (pH 7.5) containing 30 mM MgCl2, 1 mM dithiothreitol, 50 uM ATP, 0.002% Brij-35, and 0.5% dimethyl sulfoxide (DMSO). Reactions are quenched by the addition of 1× Bell Brooks Stop buffer B (20 mM Hepes (ph7.5), 40 mM ethylenediaminetetraacetic acid and 0.02% Brij-35) containing an additional 12 mM EDTA and 55 ug/mL ADP2 antibody and 4 nM ADP-AlexaFluor® 633 tracer. The tracer bound to the antibody is displaced by the ADP generated during the RIP1K reaction, which causes a decrease in fluorescence polarization that is measured by laser excitation at 633 nm with a FP microplate reader M1000. Fractional activity was plotted against test article concentration. Using Genedata Screener software (Genedata; Basel, Switzerland), the data were fit to the tight-binding apparent inhibition constant (Ki^app) Morrison equation [Williams, J. W. and Morrison, J. F. (1979) The kinetics of reversible tight-binding inhibition. Methods Enzymol 63: 437-67]. The following equation was used to calculate fractional activity and Ki^app:
[formula] where [E]T and [I]T are the total concentrations of active enzyme and test article, respectively.

human RIP1 kinase domain (2-375), sequence (Q13546 2-375): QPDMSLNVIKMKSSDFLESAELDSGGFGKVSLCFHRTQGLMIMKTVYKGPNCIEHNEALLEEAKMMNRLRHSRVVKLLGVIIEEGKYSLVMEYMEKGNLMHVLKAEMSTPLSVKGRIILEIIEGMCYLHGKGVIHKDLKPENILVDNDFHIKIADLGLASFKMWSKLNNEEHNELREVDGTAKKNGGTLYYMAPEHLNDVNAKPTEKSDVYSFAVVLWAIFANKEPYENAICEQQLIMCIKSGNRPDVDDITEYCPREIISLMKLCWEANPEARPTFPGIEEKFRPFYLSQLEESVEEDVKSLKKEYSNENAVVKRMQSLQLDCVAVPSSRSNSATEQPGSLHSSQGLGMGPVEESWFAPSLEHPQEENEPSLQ

First: O=C(c1nc2n(n1)[C@H](c1ccccc1)C[C@@H]2F)N1CC[C@@H]1C(F)F (racemic) [Example 53, [rac-(2R)-2-(difluoromethyl)azetidin-1-yl]-[rac-(5S,7S)-7-fluoro-5-phenyl-6,7-dihydro-5H-pyrrolo[1,2-b][1,2,4]triazol-2-yl]methanone]
Second: O=C(c1nc2n(n1)[C@H](c1ccccc1)C[C@@H]2F)N1CCC1C(F)F (mixture of isomers) [Example 60, [2-(difluoromethyl)azetidin-1-yl]-[rac-(5S,7S)-7-fluoro-5-phenyl-6,7-dihydro-5H-pyrrolo[1,2-b][1,2,4]triazol-2-yl]methanone]
The Ki of the first is 1.9-fold lower: 9 nM for the first, 17 nM for the second. The first binds more tightly here.

First: COCCN(CC(F)(F)F)C(=O)c1nc2n(n1)[C@H](c1ccccc1)C[C@@H]2F (racemic) [Example 55, rac-(5S,7S)-7-fluoro-N-(2-methoxyethyl)-5-phenyl-N-(2,2,2-trifluoroethyl)-6,7-dihydro-5H-pyrrolo[1,2-b][1,2,4]triazole-2-carboxamide]
Second: COCCN(CC(F)F)C(=O)c1nc2n(n1)[C@@H](c1ccccc1)C[C@H]2F (racemic) [Example 56, rac-(5R,7R)-N-(2,2-difluoroethyl)-7-fluoro-N-(2-methoxyethyl)-5-phenyl-6,7-dihydro-5H-pyrrolo[1,2-b[[1,2,4]triazole-2-carboxamide]
The Ki of the first is 7.5-fold higher: 3900 nM for the first, 520 nM for the second.

Going from `O=C(c1nc2n(n1)[C@H](c1ccccc1)C[C@@H]2F)N(CC(F)(F)F)C1COC1` (racemic) [Example 57, rac-(5S,7S)-7-fluoro-N-(oxetan-3-yl)-5-phenyl-N-(2,2,2-trifluoroethyl)-6,7-dihydro-5H-pyrrolo[1,2-b][1,2,4]triazole-2-carboxamide] to `O=C(c1nc2n(n1)[C@H](c1ccccc1)C[C@@H]2F)N(CC(F)(F)F)C1CC1` (racemic) [Example 59, rac-(5S,7S)-N-cyclopropyl-7-fluoro-5-phenyl-N-(2,2,2-trifluoroethyl)-6,7-dihydro-5H-pyrrolo[1,2-b][1,2,4|]triazole-2-carboxamide], the Ki rises from 510 nM to 2200 nM (4.3-fold).

Going from `O=C(c1nc2n(n1)[C@H](c1ccccc1)C[C@@H]2F)N(CC(F)F)C1CC1` (racemic) [Example 58, rac-(5S,7S)-N-cyclopropyl-N-(2,2-difluoroethyl)-7-fluoro-5-phenyl-6,7-dihydro-5H-pyrrolo[1,2-b][1,2,4]triazole-2-carboxamide] to `O=C(c1nc2n(n1)[C@H](c1ccccc1)C[C@@H]2F)N(C1CC1)C1CC1` (racemic) [Example 61, rac-(5S,7S)-N,N-dicyclopropyl-7-fluoro-5-phenyl-6,7-dihydro-5H-pyrrolo[1,2-b] [1,2,4]triazole-2-carboxamide], the Ki rises from 570 nM to 3200 nM (5.6-fold).

Going from `CC1CN(C(=O)c2nc3n(n2)[C@H](c2ccccc2)C[C@@H]3F)Cc2ccnn21` (mixture of isomers) [Example 62, (7-methyl-6,7-dihydro-4H-pyrazolo[1,5-a]pyrazin-5-yl)-[rac-(5S,7S)-7-fluoro-5-phenyl-6,7-dihydro-5H-pyrrolo[1,2-b][1,2,4]triazol-2-yl]methanone] to `O=C(c1nc2n(n1)[C@H](c1ccccc1)C[C@@H]2F)N1CCn2ccnc2C1` (racemic) [Example 68, 6,8-dihydro-5H-imidazo[1,2-a]pyrazin-7-yl-[rac-(5S,7S)-7-fluoro-5-phenyl-6,7-dihydro-5H-pyrrolo[1,2-b][1,2,4]triazol-2-yl]methanone], the Ki falls from 130 nM to 49 nM (2.7-fold).

Going from `Cc1cc2n(n1)CCN(C(=O)c1nc3n(n1)[C@H](c1ccccc1)C[C@@H]3F)C2` (racemic) [Example 63, (2-methyl-6,7-dihydro-4H-pyrazolo[1,5-a]pyrazin-5-yl)-[rac-(5S,7S)-7-fluoro-5-phenyl-6,7-dihydro-5H-pyrrolo[1,2-b][1,2,4]triazol-2-yl]methanone] to `O=C(c1nc2n(n1)[C@H](c1ccccc1)C[C@@H]2F)N1CCc2cnccc2C1` (racemic) [Example 75, 3.4-dihydro-1H-2,6-naphthyridin-2-yl-[rac-(5S,7S)-7-fluoro-5-phenyl-6,7-dihydro-5H-pyrrolo[1,2-b][1,2,4]triazol-2-yl]methanone], the Ki falls from 2300 nM to 290 nM (7.9-fold). The second binds more tightly here.

Compared with `O=C(c1nc2n(n1)[C@@H](c1ccccc1)C[C@H]2F)N1CCC[C@H]1C(F)F` (racemic) [Example 64, [rac-(2S)-2-(difluoromethyl)pyrrolidin-1-yl]-[rac-(5R,7R)-7-fluoro-5-phenyl-6,7-dihydro-5H-pyrrolo[1,2-b][1,2,4]triazol-2-yl]methanone], `O=C(c1nc2n(n1)[C@H](c1ccccc1)C[C@@H]2F)N1CCCC1C(F)F` (mixture of isomers) [Example 78, [2-(difluoromethyl)pyrrolidin-1-yl]-[rac-(5S, 7S)-7-fluoro-5-phenyl-6,7-dihydro-5H-pyrrolo[1,2-b][1,2,4]triazol-2-yl]methanone] is 15-fold higher in Ki: 4 nM for the first, 60 nM for the second.

Compared with `C[C@@H]1C[C@H](F)CN1C(=O)c1nc2n(n1)[C@H](c1ccccc1)C[C@@H]2F` (racemic) [Example 70, [rac-(2R,4S)-4-fluoro-2-methyl-pyrrolidin-1-yl]-[rac-(5S,7S)-7-fluoro-5-phenyl-6,7-dihydro-5H-pyrrolo[1,2-b] [1,2,4]triazol-2-yl]methanone], `C[C@H]1[C@H](C(F)(F)F)CCN1C(=O)c1nc2n(n1)[C@H](c1ccccc1)C[C@@H]2F` (racemic) [Example 85, [rac-(5S,7S)-7-fluoro-5-phenyl-6,7-dihydro-5H-pyrrolo[1,2-b][1,2,4]triazol-2-yl]-[rac-(2S,3R)-2-methyl-3-(trifluoromethyl)pyrrolidin-1-yl]methanone] is 2.2-fold higher in Ki: 150 nM for the first, 330 nM for the second. The first binds more tightly here.

Going from `O=C(c1nc2n(n1)[C@H](c1ccccc1)C[C@@H]2F)N1CCC[C@@H]1CO` (racemic) [Example 71, [rac-(5S,7S)-7-fluoro-5-phenyl-6,7-dihydro-5H-pyrrolo[1,2-b][1,2,4]triazol-2-yl]-[rac-(2R)-2-(hydroxymethyl)pyrrolidin-1-yl]methanone] to `O=C(c1nc2n(n1)[C@H](c1ccccc1)C[C@@H]2F)N1CCC[C@H]1C(F)(F)F` (racemic) [Example 82, [rac-(5S,7S)-7-fluoro-5-phenyl-6,7-dihydro-5H-pyrrolo[1,2-b][1,2,4]triazol-2-yl]-[rac-(2S)-2-(trifluoromethyl)pyrrolidin-1-yl]methanone], the Ki falls from 690 nM to 450 nM (1.5-fold).

Going from `O=C(c1nc2n(n1)[C@H](c1ccccc1)C[C@@H]2F)N1CC(F)(F)CC1CO` (mixture of isomers) [Example 72, [4,4-difluoro-2-(hydroxymethyl)pyrrolodin-1-yl]-[rac-(5S,7S)-7-fluoro-5-phenyl-6,7-dihydro-5H-pyrrolo[1,2-b] [1,2,4]triazol-2-yl]methanone] to `O=C(c1nc2n(n1)[C@H](c1ccccc1)C[C@@H]2F)N1CC(F)(F)C[C@H]1CF` (racemic) [Example 73, [rac-(2S)-4,4-difluoro-2-(fluoromethyl)pyrrolidin-1-yl]-[rac-(5S,7S)-7-fluoro-5-phenyl-6,7-dihydro-5H-pyrrolo[1,2-b] [1,2,4]triazol-2-yl]methanone], the Ki falls from 3900 nM to 82 nM (48-fold). The second binds more tightly here.

Compared with `O=C(c1nc2n(n1)[C@H](c1ccccc1)C[C@@H]2F)N1CCC(Oc2ccccc2)C1` (mixture of isomers) [Example 77, (3-phenoxypyrrolidin-1-yl)-[rac-(5S,7S)-7-fluoro-5-phenyl-6,7-dihydro-5H-pyrrolo[1,2-b][1,2,4]triazol-2-yl]methanone], `O=C(c1nc2n(n1)[C@H](c1ccccc1)C[C@@H]2F)N1CCCn2nccc21` (racemic) [Example 80, 6,7-dihydro-5H-pyrazolo[1,5-a]pyrimidin-4-yl-[rac-(5S,7S)-7-fluoro-5-phenyl-6,7-dihydro-5H-pyrrolo[1,2-b][1,2,4]triazol-2-yl]methanone] is 1.6-fold higher in Ki: 61 nM for the first, 100 nM for the second.

Going from `O=C(c1nc2n(n1)[C@H](c1ccccc1)C[C@@H]2F)N1CCCC(F)(F)C1` (racemic) [Example 79, (3,3-difluoro-1-piperidyl)-[rac-(5S,7S)-7-fluoro-5-phenyl-6,7-dihydro-5H-pyrrolo[1,2-b][1,2,4]triazol-2-yl] methanone] to `O=C(c1nc2n(n1)[C@H](c1ccccc1)C[C@@H]2F)N1CCC[C@@H]1C(F)(F)F` (racemic) [Example 83, [rac-(5S,7S)-7-fluoro-5-phenyl-6,7-dihydro-5H-pyrrolo[1,2-b][1,2,4]triazol-2-yl]-[rac-(2R)-2-(trifluoromethyl)pyrrolidin-1-yl]methanone], the Ki falls from 790 nM to 350 nM (2.3-fold). The second binds more tightly here.

`O=C(c1nc2n(n1)[C@H](c1ccccc1)C[C@@H]2F)N1CCC(C(F)(F)F)n2nccc21` (mixture of isomers) [Example 81, [rac-(5S,7S)-7-fluoro-5-phenyl-6,7-dihydro-5H-pyrrolo[1,2-b][1,2,4]triazol-2-yl]-[7-(trifluoromethyl)-6,7-dihydro-5H-pyrazolo [1,5-a]pyrimidin-4-yl]methanone] and `O=C(c1nc2n(n1)[C@H](c1ccccc1)C[C@@H]2F)N1CCCC1C(F)(F)F` (mixture of isomers) [Example 84, [rac-(5S,7S)-7-fluoro-5-phenyl-6,7-dihydro-5H-pyrrolo[1,2-b][1,2,4]triazol-2-yl]-[2-(trifluoromethyl)pyrrolidin-1-yl]methanone] are within 1.5-fold of each other in Ki: 250 nM for the first, 300 nM for the second.
